Reference: ChEMBL document CHEMBL1201862, “PubChem BioAssay data set” (2004)
The source made the active and inactive calls.

What was measured:
[1] = Luminescence Cell-Based Dose Confirmation HTS to Identify Activators of 5'UTR Stem-Loop Driven Alpha-Synuclein mRNA Translation in H4 Neuroglioblastoma Cells. [Related pubchem assays: 1829 (Project Summary), 1814 (Primary HTS)]; type: functional
[2] = Luminescence Cell-Based Dose Response HTS to Identify Activators of Luciferase Translation or Activity in H4 […] Cells. [Related pubchem assays: 1829 (Project Summary), 1814 (Primary HTS)]; type: functional
H4 = experiment: Luminescence Cell-Based Dose Response HTS to Identify Activators of 5'UTR Stem-Loop Driven Prion Protein mRNA Translation in H4 Neuroglioblastoma Cells. [Related pubchem assays: 1829 (Project Summary), 1814 (Primary HTS)]; type: functional; conditions: Homo sapiens
[3] = target: T1, Short transient receptor potential channel 4 (Mus musculus, UniProt Q9QUQ5); experiment: mouse TRPC4 channel activators, dose response, cell-based, HEK293 TRPC4/mu-opioid, Fluo-4 calcium (AID 434937); type: functional
T1 sequence (Q9QUQ5 whole entry): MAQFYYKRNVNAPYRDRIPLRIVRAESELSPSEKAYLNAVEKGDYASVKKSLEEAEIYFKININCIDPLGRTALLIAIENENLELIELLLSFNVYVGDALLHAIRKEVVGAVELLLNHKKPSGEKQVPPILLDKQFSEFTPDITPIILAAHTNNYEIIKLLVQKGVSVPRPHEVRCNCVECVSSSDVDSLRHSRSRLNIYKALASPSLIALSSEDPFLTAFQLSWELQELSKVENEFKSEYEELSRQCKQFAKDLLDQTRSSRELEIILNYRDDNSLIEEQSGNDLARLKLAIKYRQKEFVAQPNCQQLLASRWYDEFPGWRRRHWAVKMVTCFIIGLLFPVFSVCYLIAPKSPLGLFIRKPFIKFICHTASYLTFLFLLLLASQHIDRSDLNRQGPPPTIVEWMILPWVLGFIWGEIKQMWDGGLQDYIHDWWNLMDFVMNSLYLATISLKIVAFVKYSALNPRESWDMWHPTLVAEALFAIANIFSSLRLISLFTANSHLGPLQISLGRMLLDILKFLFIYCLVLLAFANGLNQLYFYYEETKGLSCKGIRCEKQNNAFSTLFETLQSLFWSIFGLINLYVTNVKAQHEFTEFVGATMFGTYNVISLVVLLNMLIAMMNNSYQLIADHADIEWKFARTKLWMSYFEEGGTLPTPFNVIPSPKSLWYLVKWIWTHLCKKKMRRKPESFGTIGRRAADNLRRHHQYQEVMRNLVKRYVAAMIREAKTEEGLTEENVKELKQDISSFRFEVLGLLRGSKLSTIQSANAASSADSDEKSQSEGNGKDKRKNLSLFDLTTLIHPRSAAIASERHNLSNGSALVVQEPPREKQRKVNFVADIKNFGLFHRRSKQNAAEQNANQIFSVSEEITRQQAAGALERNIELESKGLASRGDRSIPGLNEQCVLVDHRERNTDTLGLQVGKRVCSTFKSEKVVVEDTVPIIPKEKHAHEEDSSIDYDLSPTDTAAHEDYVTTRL

[4] = target: T2, Calpain-2 catalytic subunit (Sus scrofa, UniProt P43367); experiment: pig calpain II inhibitor potency, dose response, biochemical, fluorogenic peptide substrate (AID 1420); type: functional
T2 sequence (P43367 whole entry): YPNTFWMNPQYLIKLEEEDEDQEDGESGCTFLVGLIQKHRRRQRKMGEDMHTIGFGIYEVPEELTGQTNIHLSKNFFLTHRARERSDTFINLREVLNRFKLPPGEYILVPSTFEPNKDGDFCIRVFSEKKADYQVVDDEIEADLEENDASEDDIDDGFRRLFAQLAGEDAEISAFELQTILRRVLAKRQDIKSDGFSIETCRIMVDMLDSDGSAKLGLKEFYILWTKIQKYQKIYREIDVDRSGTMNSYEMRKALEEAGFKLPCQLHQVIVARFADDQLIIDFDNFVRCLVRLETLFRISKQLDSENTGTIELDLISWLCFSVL

[5] = target: T3, Ubiquitin-conjugating enzyme E2 N (Homo sapiens, UniProt P61088); type: functional;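 also: Dose-response confirmation in a TR-FRET assay detecting UBC13-driven polyubiquitin chain formation, inhibition measured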
T3 sequence (P61088 whole entry): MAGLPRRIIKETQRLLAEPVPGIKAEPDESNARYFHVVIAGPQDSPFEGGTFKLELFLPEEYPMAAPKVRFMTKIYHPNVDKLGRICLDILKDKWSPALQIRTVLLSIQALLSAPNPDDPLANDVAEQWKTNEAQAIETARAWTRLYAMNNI

[6] = target: Luciferin 4-monooxygenase (Photinus pyralis, UniProt P08659); experiment: firefly luciferase enzyme inhibitors, dose response, biochemical, luminescence (AID 1891)
[7] = Luminescence Cell-Based Dose Confirmation HTS to Identify Inhibitors of Platelet Dense Granule Release. [Related pubchem assays: 1663 (Primary HTS), 1678 (Summary of Project)]; type: functional
Cytochrome P450 3A4 = Cytochrome P450 3A4 (Homo sapiens, UniProt P08684); conditions: Potency;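 also: confirmatory qHTS run detecting inhibitors and substrates of CYP3A4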
[8] = target: T4, High affinity choline transporter 1 (Homo sapiens, UniProt Q9GZV3); experiment: CHT inhibitors, dose response, cell-based, 5-point CRC, membrane potential dye (AID 504840); type: functional
T4 sequence (Q9GZV3 whole entry): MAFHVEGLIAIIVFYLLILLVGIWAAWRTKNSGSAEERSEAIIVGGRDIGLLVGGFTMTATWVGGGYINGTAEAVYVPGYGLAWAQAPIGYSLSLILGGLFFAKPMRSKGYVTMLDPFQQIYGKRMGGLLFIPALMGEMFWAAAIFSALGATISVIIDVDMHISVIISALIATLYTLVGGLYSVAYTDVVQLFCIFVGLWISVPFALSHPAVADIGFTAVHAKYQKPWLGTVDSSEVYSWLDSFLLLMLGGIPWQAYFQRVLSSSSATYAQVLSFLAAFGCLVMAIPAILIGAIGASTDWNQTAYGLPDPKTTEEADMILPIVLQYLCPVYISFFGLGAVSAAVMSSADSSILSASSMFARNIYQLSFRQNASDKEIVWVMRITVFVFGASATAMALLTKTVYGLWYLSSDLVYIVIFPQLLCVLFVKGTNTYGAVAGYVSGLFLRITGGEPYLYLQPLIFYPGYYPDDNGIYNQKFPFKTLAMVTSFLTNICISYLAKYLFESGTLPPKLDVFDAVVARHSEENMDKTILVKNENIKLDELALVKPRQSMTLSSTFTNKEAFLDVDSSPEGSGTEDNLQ

[9] = control 3'UTR Renilla luciferase suppression, dose response, counter-screen for Shn3 inhibitor project, cell-based, Clone20-Shn3RL, cherry-picked (AID 624133); type: functional
[10] = Shn3 3'UTR reporter inhibitors, dose response, cell-based, Clone20 osteoblasts, firefly luciferase, cherry-picked (AID 624132); type: functional;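 also: firefly luciferase luminescence from reporter carrying the Shn3 3'UTR in osteoblasts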
[11] = HepG2 cell cytotoxicity, dose response, cytotoxicity control for Shn3 inhibitor project, CellTiter-Glo, cherry-picked (AID 624134); type: functional, cell-based
Paired box protein Pax-8 = Paired box protein Pax-8 (Homo sapiens, UniProt Q06710); experiment: inhibitors of PAX8-driven TPO luciferase reporter, dose response, RMG-I cells, cherry-pick (AID 687027); type: functional, cell-based;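 also: luciferase reporter driven by Pax8 target thyroperoxidase promoter measured by SteadyGlo luminescence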
Sequence of Paired box protein Pax-8 (Q06710 whole entry): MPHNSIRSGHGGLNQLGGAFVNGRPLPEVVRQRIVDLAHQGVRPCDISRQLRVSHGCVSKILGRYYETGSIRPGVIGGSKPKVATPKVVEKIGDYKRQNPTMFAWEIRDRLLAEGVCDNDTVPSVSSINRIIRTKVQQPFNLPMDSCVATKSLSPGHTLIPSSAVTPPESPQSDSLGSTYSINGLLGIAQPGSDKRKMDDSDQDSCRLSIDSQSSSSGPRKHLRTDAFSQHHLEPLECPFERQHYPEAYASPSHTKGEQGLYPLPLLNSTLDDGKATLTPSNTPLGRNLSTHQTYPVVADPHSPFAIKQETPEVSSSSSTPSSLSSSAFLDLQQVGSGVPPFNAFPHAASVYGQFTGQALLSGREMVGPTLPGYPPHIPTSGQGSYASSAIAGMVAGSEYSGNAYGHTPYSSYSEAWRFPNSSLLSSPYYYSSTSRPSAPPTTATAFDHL

Sequence of Cytochrome P450 3A4 (P08684 whole entry): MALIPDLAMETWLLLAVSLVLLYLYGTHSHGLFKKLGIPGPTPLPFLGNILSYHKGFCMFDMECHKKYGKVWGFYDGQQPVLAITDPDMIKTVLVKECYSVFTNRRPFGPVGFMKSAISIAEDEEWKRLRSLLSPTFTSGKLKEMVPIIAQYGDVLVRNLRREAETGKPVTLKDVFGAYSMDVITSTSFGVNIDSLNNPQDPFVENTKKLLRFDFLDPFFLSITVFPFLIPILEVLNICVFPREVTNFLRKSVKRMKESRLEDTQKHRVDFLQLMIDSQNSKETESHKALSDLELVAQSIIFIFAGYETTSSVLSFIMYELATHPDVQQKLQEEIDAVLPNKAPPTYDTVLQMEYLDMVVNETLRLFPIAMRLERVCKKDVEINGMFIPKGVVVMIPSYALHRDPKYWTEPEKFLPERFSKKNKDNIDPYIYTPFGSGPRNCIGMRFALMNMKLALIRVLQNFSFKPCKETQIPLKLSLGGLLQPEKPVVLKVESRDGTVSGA
Sequence of Luciferin 4-monooxygenase (P08659 whole entry): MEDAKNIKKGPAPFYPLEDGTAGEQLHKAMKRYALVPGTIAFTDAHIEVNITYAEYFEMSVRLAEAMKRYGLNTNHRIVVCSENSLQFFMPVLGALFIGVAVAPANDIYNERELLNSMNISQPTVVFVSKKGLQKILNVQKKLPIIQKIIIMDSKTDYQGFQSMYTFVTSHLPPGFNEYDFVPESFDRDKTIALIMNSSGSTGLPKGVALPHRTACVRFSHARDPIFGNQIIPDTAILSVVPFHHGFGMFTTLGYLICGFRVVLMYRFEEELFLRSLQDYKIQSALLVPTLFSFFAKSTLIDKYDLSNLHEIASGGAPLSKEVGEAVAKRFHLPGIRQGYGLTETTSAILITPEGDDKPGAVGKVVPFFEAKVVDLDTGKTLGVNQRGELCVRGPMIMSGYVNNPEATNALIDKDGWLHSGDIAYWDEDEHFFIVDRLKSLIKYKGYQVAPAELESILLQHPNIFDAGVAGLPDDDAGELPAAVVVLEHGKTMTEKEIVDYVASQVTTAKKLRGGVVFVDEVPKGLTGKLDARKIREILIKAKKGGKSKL

## O=C1c2sc3nc4ccccc4n3c2C(=O)N1c1ccccc1Cl
[1]
  EC50: > 120 µM (not active)
[2]
  EC50: 13.8 µM (active)
H4
  EC50: > 120 µM (not active)

## Cc1ccc(CNC(=O)C2CCCN(Cc3cnn(-c4ccccc4)c3-n3cccc3)C2)cc1 (stereo unspecified)
[3]
  EC50: 4.73 µM (active)

## Fc1cccc(Cn2cc(C(=S)N3CCCCC3)c3ccccc32)c1
[4]
  IC50: 2.86 µM (not active)

## O=C(CSc1ccccn1)N/N=C/c1c[nH]c2ccccc12
[4]
  IC50: > 50 µM (not active)

## NC(=O)c1c(NC(=O)C(=O)NCCCN2CCOCC2)sc2c1CCCC2
[5]
  IC50: > 20 µM (inactive)

## CC(=O)c1ccc(NC(=O)CCc2nnc3ccc(NCc4ccco4)nn23)cc1
[1]
  EC50: 6.27 µM (active)
[2]
  EC50: 11.2 µM (active)
H4
  EC50: > 120 µM (not active)
[6]
  EC50: > 112 µM (not active)
[7]
  EC50: > 112 µM (not active)

## COc1ccc(OC)c(NC(=O)CSc2nc3ccccc3c3nc4ccccc4n23)c1
[4]
  IC50: > 50 µM (not active)

## COc1ccc(S(=O)(=O)N2CCC(NC(=O)OCc3c(Cl)cccc3Cl)CC2)cc1
[4]
  IC50: 7.91 µM (not active)

## Nc1ccc2c(c1)C(=O)Cc1ccccc1S2
[5]
  IC50: > 20 µM (inactive)

## CCCCCCC1=Cc2cc(OC)c(OC)cc2C(C2(C(=O)OCC)CCCC2=O)O1 (stereo unspecified)
Cytochrome P450 3A4
  AC50: 3.16 µM (inconclusive)

## CCCN(CCC)C(=O)CC(c1ccccc1)c1ccc(C)cc1O (stereo unspecified)
[4]
  IC50: > 50 µM (not active)

## CCc1cc([N+](=O)[O-])cc(CC)c1N
[8]
  IC50: 13.8 µM (active)

## CCn1cc(/C=C(\NC(=O)c2ccccc2F)C(=O)N2CCOCC2)c2ccccc21
[8]
  IC50: 15.6 µM (active)

## COc1cc2c(cc1OC)-c1cc(NC3CCCCCC3)nc(=O)n1CC2
[8]
  IC50: 12.9 µM (active)
[6]
  EC50: > 112 µM (not active)
[7]
  EC50: 2.94 µM (active)

## CNCCc1n[nH]c(N)n1
[3]
  EC50: 0.0667 µM (active)

## C=CCn1c(=O)c(C(=O)Nc2ccccc2S(N)(=O)=O)c(O)c2ccccc21
[5]
  IC50: > 20 µM (inactive)

## CSCCC(NC(=O)c1ccc(Cl)cc1Cl)C(=O)NNC(=O)c1csc(N2CCOCC2)n1 (stereo unspecified)
[5]
  IC50: > 20 µM (inactive)

## COC(=O)N1CC=CC1(C)C(=O)NCc1ccc(C)o1 (stereo unspecified)
Cytochrome P450 3A4
  AC50: 15.8 µM (inconclusive)

## O=C(COc1ccc(Br)cc1CNC1CCCC1)Nc1ccccc1
[3]
  EC50: 5.96 µM (active)

## O=[N+]([O-])c1cccc(CSc2nnc3ccccn23)c1
[8]
  IC50: 16.6 µM (active)

## COc1cccc(NC(=O)c2nnn(CCc3ccccc3)c2N)c1
[1]
  EC50: 6.28 µM (active)
[2]
  EC50: 6.24 µM (active)
H4
  EC50: 4.53 µM (active)

## COC(=O)[C@]1(C)CC[C@@]2(C)CC[C@@]3(C)C4=CC=C5C(=CC(=O)C(O)=C5C)[C@@]4(C)CC[C@@]3(C)C2C1 (stereo partly specified)
Cytochrome P450 3A4
  AC50: 31.6 µM (inconclusive)

## COc1ccc(C[C@H]2COC(=O)[C@@H]2Cc2ccc(OC3OC(CO)C(O)C(O)C3O)c(OC)c2)cc1OC (stereo partly specified)
[9]
  AC50: 15.5 µM (active)
[10]
  AC50: 4.43 µM (active)
[11]
  AC50: 48.3 µM (active)

## CN(C)C(CNc1ncnc2sc3c(c12)CCCC3)c1ccco1 (stereo unspecified)
[3]
  EC50: 3.35 µM (active)

## Nc1c(-c2ccc(Cl)cc2)nnn1-c1ccccc1
[1]
  EC50: 0.217 µM (active)
[2]
  EC50: 0.135 µM (inconclusive)
H4
  EC50: 13.2 µM (active)

## Oc1ccc2c(c1)OC(c1ccc(O)c(O)c1)C(O)C2 (stereo unspecified)
Cytochrome P450 3A4
  AC50: 25.1 µM (inconclusive)

## COc1cc2ccccc2cc1C(=O)Nc1ccc(S(=O)(=O)Nc2cc(C)on2)cc1
[8]
  IC50: 13.8 µM (active)

## CC1(C)CC(=O)C2=CNc3ccccc3N=C2C1
[1]
  EC50: > 120 µM (not active)
[2]
  EC50: > 120 µM (not active)
H4
  EC50: > 120 µM (not active)

## COc1cccc(C2=CC(c3ccc(OC)c(OC)c3)NC(S)=N2)c1 (stereo unspecified)
[4]
  IC50: 2.81 µM (not active)

## CSCCC(c1nnnn1Cc1ccccc1)N1CCC(n2c(O)nc3ccccc32)CC1 (stereo unspecified)
Paired box protein Pax-8
  AC50: 0.538 µM (active)

## CC(=O)N1[C@H](C)C=C[C@]1(Cc1ccccc1)C(=O)O
Cytochrome P450 3A4
  AC50: 31.6 µM (inconclusive)

## CN(Cc1cccc(Cl)c1Cl)C(=O)c1cccc(S(=O)(=O)N2CCN(Cc3ccccc3)CC2)c1
[9]
  AC50: 17.7 µM (active)
[10]
  AC50: 3.38 µM (active)
[11]
  AC50: 55.6 µM (active)

## COc1ccc(C(CNC(=O)c2ccccc2SC)N(C)C)cc1 (stereo unspecified)
[3]
  EC50: 0.473 µM (active)

## Cn1c(=O)c2c(nc(SCCN3CCOCC3)n2Cc2ccc(F)cc2)n(C)c1=O
[1]
  EC50: 0.262 µM (active)
[2]
  EC50: 5.27 µM (active)
H4
  EC50: > 120 µM (not active)

## COc1ccc(C(CNC(=O)Cc2ccc(Cl)c(Cl)c2)N(C)C)cc1 (stereo unspecified)
[3]
  EC50: 0.299 µM (active)

## Cc1ccc(NC(=O)c2ccc(S(=O)(=O)NCc3ccco3)cc2)nc1
[1]
  EC50: 15.2 µM (active)
[2]
  EC50: 11.1 µM (active)
H4
  EC50: 49.7 µM (active)

## COc1ccc(-c2cc(=O)c3c(O)cc(O)c(-c4cc(-c5cc(=O)c6c(O)cc(O)cc6o5)ccc4OC)c3o2)cc1 [ISOGINKGETIN]
Cytochrome P450 3A4
  AC50: 3.98 µM (inconclusive)

## C=CCSSCC=C
Cytochrome P450 3A4
  AC50: 25.1 µM (inconclusive)

## CCCCN(CC)CCNC(=O)c1cc2cc3ccc(Cl)cc3nc2o1
[3]
  EC50: 0.596 µM (active)
